Publication PMC8317135 (Journal of medicinal chemistry, 2021)
Entries after “also recorded” stand apart in the source; their conditions may differ. Like-named read-outs stand apart in the source and are kept apart here.

Tests used:
[1] = tested on: porcine liver esterase (PLE); test: Esterase cleavage of prodrugs by porcine liver esterase; conditions: for percent cleavage at 72 h: pH 7.3 aqueous medium, PLE, 37 °C; for half-life at 1 mM: pig, pH 7.3
[2] = tested on: eosinophils in the bronchoalveolar lavage fluid (BALF); test: Ovalbumin/Aspergillus protease mouse model of allergic asthma, BALF leukocytes; assay type: in vivo; conditions: 2 days post-challenge; for eosinophil counts in the BALF / efficacy in asthma model: 20 μmol kg^−1, i.p. prior to allergen challenge
hP2Y14R [3] = biological target: T1, hP2Y14R (Homo sapiens, UniProt Q15391); conditions: for hP2Y14R affinity in words: hP2Y14R-expressing CHO cells, tracer 2
T1 sequence (Q15391 1-338): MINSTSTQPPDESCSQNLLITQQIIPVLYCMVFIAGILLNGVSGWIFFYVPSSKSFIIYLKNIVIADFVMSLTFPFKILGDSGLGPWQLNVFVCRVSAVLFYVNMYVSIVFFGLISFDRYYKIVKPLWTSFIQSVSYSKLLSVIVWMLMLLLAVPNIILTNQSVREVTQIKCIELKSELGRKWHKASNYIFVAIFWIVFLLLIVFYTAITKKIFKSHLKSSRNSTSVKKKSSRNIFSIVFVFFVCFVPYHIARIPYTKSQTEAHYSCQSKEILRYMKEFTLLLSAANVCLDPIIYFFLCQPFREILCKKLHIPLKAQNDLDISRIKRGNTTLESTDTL

[4] = tested on: 46 receptors and channels; test: PDSP off-target radioligand binding screen; conditions: radioligand binding at 46 receptors and channels
hERG = hERG (Homo sapiens, UniProt Q12809); test: cell-based
[5] = tested on: CCI-induced mechano-allodynia; conditions: mouse; cited from earlier work
in vivo = conditions: male, Wistar, rat
[6] = not given; remark: listed apart in the source
[7] = Lipophilicity based on HPLC retention time; assay type: physicochemical; conditions: relative to 1a
[8] = tested on: CCI-induced mechano-allodynia; test: Chronic constriction injury; conditions: mouse
hP2Y14R [9] = biological target: T1, hP2Y14R; test: cell-based; conditions: IC50 / affinity at hP2Y14R (μM), hP2Y14R-expressing CHO cells, tracer 2
DOR (δ-opioid receptor) = DOR (δ-opioid receptor) (Homo sapiens, UniProt P41143); test: PDSP radioligand binding, DOR
[10] = male Wistar rats, 1.0 mg kg^−1 i.p.
[11] = male Wistar rats, 3.0 mg kg^−1 i.p.
[12] = male Wistar rats, 10 mg kg^−1 i.p.

DOR (δ-opioid receptor), sequence (P41143 whole entry): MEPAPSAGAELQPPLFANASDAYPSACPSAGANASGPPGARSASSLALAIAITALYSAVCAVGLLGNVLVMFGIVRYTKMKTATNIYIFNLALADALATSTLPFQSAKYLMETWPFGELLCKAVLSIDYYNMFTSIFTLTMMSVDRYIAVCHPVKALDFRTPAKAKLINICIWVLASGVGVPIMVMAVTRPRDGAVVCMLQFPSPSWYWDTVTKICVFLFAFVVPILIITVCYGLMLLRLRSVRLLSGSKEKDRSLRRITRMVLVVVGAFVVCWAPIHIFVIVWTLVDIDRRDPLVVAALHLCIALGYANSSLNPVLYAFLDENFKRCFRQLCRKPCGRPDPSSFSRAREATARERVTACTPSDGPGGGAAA
hERG, sequence (Q12809 whole entry): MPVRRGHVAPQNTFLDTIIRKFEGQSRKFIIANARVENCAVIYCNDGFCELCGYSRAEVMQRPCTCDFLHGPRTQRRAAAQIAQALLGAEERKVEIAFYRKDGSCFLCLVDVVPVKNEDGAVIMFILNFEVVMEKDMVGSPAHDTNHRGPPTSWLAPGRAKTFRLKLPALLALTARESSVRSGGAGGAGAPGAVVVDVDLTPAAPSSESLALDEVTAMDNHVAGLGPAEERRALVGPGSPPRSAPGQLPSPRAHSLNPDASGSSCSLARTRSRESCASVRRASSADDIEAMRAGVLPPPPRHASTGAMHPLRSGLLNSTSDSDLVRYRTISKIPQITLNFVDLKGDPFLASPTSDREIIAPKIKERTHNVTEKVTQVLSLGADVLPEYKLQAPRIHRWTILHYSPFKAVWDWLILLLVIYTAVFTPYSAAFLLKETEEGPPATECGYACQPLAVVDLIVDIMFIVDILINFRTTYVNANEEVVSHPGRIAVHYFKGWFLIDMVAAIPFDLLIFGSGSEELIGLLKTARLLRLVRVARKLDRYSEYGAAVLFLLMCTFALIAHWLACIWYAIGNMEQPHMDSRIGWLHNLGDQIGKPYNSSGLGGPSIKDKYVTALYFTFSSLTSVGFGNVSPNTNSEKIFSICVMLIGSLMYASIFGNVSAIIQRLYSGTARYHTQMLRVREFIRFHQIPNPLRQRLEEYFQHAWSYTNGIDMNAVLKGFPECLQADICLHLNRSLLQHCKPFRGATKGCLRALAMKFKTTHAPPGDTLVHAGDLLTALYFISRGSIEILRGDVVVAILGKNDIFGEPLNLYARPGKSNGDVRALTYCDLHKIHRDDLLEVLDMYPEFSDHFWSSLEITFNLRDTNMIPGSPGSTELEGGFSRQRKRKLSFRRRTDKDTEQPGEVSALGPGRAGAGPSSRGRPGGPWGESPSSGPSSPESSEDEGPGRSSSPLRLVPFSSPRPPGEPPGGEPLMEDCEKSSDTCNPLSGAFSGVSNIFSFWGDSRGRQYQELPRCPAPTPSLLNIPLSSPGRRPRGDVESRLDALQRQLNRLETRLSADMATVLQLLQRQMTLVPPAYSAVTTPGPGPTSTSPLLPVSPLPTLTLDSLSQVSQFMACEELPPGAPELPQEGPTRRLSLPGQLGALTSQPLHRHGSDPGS

## CN(C)C(=O)COC(=O)c1cc(-c2ccc(-c3cc(CO)on3)cc2)c2ccc(-c3ccc(C(F)(F)F)cc3)cc2c1 [Compound 37b, 2-(Dimethylamino)-2-oxoethyl 4-(4-(5-(Hydroxymethyl)isoxazol-3-yl)phenyl)-7-(4-(trifluoromethyl)phenyl)-2-naphthoate]
[1]
  percent cleavage at 72 h: < 50%
  half-life at 1 mM: > 1.2 h
[2]
  eosinophil counts in the BALF / efficacy in asthma model: significantly reduced eosinophils; also recorded: highly efficacious

## CC(C)(C)OC(=O)N1CCC(C(=O)Nc2ccc(-c3cc(C(=O)O)cc(-n4cc(-c5ccc(C(F)(F)F)cc5)nn4)c3)cc2)CC1 [Compound 12, 4′-(1-(tert-Butoxycarbonyl)piperidine-4-carboxamido)-5-(4-(4-(trifluoromethyl)phenyl)-1H-1,2,3-triazol-1-yl)-[1,1′-biphenyl]-3-carboxylic Acid]
hP2Y14R [3]; N-Boc protected forms compared to 11 and 18
  fold weaker in binding than the parent amines: > 100 fold

## CC(=O)Nc1ccc(-c2cc(C(=O)O)cc(-n3cc(-c4ccc(C(F)(F)F)cc4)nn3)c2)cc1 [Compound 8, 4′-Acetamido-5-(4-(4-(trifluoromethyl)phenyl)-1H-1,2,3-triazol-1-yl)-[1,1′-biphenyl]-3-carboxylic Acid]
hP2Y14R [3]
  hP2Y14R affinity in words: submicromolar affinity

## CC(=O)N1CCC(c2ccc(-c3cc(C(=O)OCC(=O)N(C)C)cc4cc(-c5ccc(C(F)(F)F)cc5)ccc34)cc2)CC1 [Compound 37c, 2-(Dimethylamino)-2-oxoethyl 4-(4-(1-Acetylpiperidin-4-yl)-phenyl)-7-(4-(trifluoromethyl)phenyl)-2-naphthoate]
[1]
  percent cleavage at 72 h: < 50%
  half-life at 1 mM: > 1.2 h
[2]
  eosinophil counts in the BALF / efficacy in asthma model: significantly reduced eosinophils; also recorded: highly efficacious

## O=C(O)c1cc(-c2ccc(-c3nnn[nH]3)cc2)cc(-n2cc(-c3ccc(C(F)(F)F)cc3)nn2)c1 [Compound 31, 4′-(1H-Tetrazol-5-yl)-5-(4-(4-(trifluoromethyl)phenyl)-1H-1,2,3-triazol-1-yl)-[1,1′-biphenyl]-3-carboxylic Acid]
hP2Y14R [3]
  hP2Y14R affinity in words: submicromolar affinity

## NCCCNC(=O)c1ccc(-c2cc(C(=O)O)cc(-n3cc(-c4ccc(C(F)(F)F)cc4)nn3)c2)cc1 [Compound 14, 4′-((3-Aminopropyl)carbamoyl)-5-(4-(4-(trifluoromethyl)-phenyl)-1H-1,2,3-triazol-1-yl)-[1,1′-biphenyl]-3-carboxylic Acid]
hP2Y14R [3]; compared to 4
  fold lower affinity than thienyl derivative 4: 3.5 fold
hP2Y14R [3]
  hP2Y14R affinity in words: submicromolar affinity

## O=C(O)c1cc(-c2ccc(NC(=O)C3CCNCC3)cc2)cc(-n2cc(-c3ccc(C(F)(F)F)cc3)nn2)c1 [Compound 11, 4′-(Piperidine-4-carboxamido)-5-(4-(4-(trifluoromethyl)phenyl)-1H-1,2,3-triazol-1-yl)-[1,1′-biphenyl]-3-carboxylic Acid]
Aqueous solubility
  solubility in aqueous medium in words: poorly soluble in aqueous medium

## O=C(O)c1cc(-c2ccc(CCCCO)cc2)cc(-n2cc(-c3ccc(C(F)(F)F)cc3)nn2)c1 [Compound 21, 4′-(4-Hydroxybutyl)-5-(4-(4-(trifluoromethyl)phenyl)-1H-1,2,3-triazol-1-yl)-[1,1′-biphenyl]-3-carboxylic Acid]
hP2Y14R [3]
  hP2Y14R affinity in words: bound weakly

## CN(C)C(=O)COC(=O)c1cc(-c2ccc(C3CCNCC3)cc2)cc(-n2cc(-c3ccc(C(F)(F)F)cc3)nn2)c1 [Compound 37a, 2-(Dimethylamino)-2-oxoethyl 4′-(Piperidin-4-yl)-5-(4-(4-(trifluoromethyl)phenyl)-1H-1,2,3-triazol-1-yl)-[1,1′-biphenyl]-3-carboxylate]
[4]
  number of off-target interactions in the μM range: 18
  off-target interactions in the standard PDSP screen: promiscuous in off-target binding
[2]
  eosinophil counts in the BALF / efficacy in asthma model: lack of in vivo activity
[2]; 20 μmol kg^−1, i.p.
  lymphocyte count in the BALF: trended higher than in a vehicle control

## O=C(O)c1cc(-c2ccc(C3CCNCC3)cc2)c2ccc(-c3ccc(C(F)(F)F)cc3)cc2c1 [Compound 1a, 4-[4-(4-piperidinyl)phenyl]-7-[4-(trifluoromethyl)phenyl]-2-naphthalene-carboxylic acid]
hERG
  IC50: > 30 µM
other
  solubility in DMSO at 20 mg mL^−1: could not dissolve
[2]
  eosinophil counts in the BALF / efficacy in asthma model: reduced
[5]
  effect on chronic pain in the CCI model: effective in reducing chronic pain

## NCCCc1ccc(-c2cc(C(=O)O)cc(-n3cc(-c4ccc(C(F)(F)F)cc4)nn3)c2)cc1 [Compound 18, 4′-(3-Aminopropyl)-5-(4-(4-(trifluoromethyl)phenyl)-1H-1,2,3-triazol-1-yl)-[1,1′-biphenyl]-3-carboxylic Acid]
hP2Y14R [3]
  hP2Y14R affinity in words: submicromolar affinity
[4]
  off-target interactions in the standard PDSP screen: did not show any off-target interactions

## O=C(O)c1cc(-c2ccc(-c3cc(CO)on3)cc2)c2ccc(-c3ccc(C(F)(F)F)cc3)cc2c1 [Compound 32, 4-(4-(5-(Hydroxymethyl)isoxazol-3-yl)phenyl)-7-(4-(trifluoromethyl)phenyl)-2-naphthoic Acid]
In vivo; ip, 1 mg/kg
  AUC(0-t) at 24 h: 650 ng·h/mL
  Cmax at 24 h: 88.4 ng/mL
  half-life: 7.23 h
In vivo; ip, 3 mg/kg
  AUC(0-inf) at 24 h: 2120 ng·h/mL
  AUC(0-t) at 24 h: 2060 ng·h/mL
  Cmax at 24 h: 315 ng/mL
  half-life at 24 h: 4.68 h
In vivo; ip, 10 mg/kg
  AUC(0-inf) at 24 h: 4920 ng·h/mL
  AUC(0-t) at 24 h: 4900 ng·h/mL
  Cmax at 24 h: 786 ng/mL
  half-life at 24 h: 2.98 h
In vivo; iv, 0.5 mg/kg
  AUC(0-inf) at 24 h: 238 ng·h/mL
  AUC(0-t) at 24 h: 234 ng·h/mL
  Cmax at 24 h: 359 ng/mL
  Vd at 24 h: 2.09 L/kg
  clearance at 24 h: 35.2 mL/min/kg
  half-life at 24 h: 0.689 h
[6]; all rat groups at all time points (up to 24 h)
  clinical signs: normal
[6]; male Wistar rats, 0.5 mg kg^−1 i.v.
  Kel (1 h^−1): 1.01 1 h^−1
[6]; [10]
  Cl: 23.83 mL/min/kg
  Kel (1 h^−1): 0.096 1 h^−1
  Vd (mL kg^−1): 14,900 mL kg^−1
[6]; [11]
  Cl: 23.67 mL/min/kg
  Kel (1 h^−1): 0.148 1 h^−1
  Vd: 9.57 L/kg
[6]; [12]
  Cl: 33.83 mL/min/kg
  Kel (1 h^−1): 0.233 1 h^−1
  Vd: 8.73 L/kg
[6]; rat, 10 mg kg^−1, i.p., 4 h post-injection
  peak concentration: 1.61 µM
[7]
  hydrophilicity gain compared to 1a: −0.80 cLogP units
[2]
  eosinophil counts in the BALF / efficacy in asthma model: no significant reduction
[8]; 10 μmol kg^−1 (4.9 mg kg^−1), i.p., 1 h post-injection
  maximal reversal of CCI-induced mechano-allodynia: 71.0 ± 17.4%
[8]; 10 μmol kg^−1, i.p.
  side effects: No side effects were evident
[8]; 10 μmol kg^−1, i.p., 3 or 5 h post-injection
  protection against CCI-induced mechano-allodynia at 3 or 5 h: not statistically significant

## NCC#Cc1ccc(-c2cc(C(=O)O)cc(-n3cc(-c4ccc(C(F)(F)F)cc4)nn3)c2)cc1 [Compound 19, 4′-(3-Aminoprop-1-yn-1-yl)-5-(4-(4-(trifluoromethyl)phenyl)-1H-1,2,3-triazol-1-yl)-[1,1′-biphenyl]-3-carboxylic Acid]
hP2Y14R [3]
  hP2Y14R affinity in words: submicromolar affinity
[4]
  off-target interactions in the standard PDSP screen: did not show any off-target interactions

## O=C(O)c1ccc(-c2cc(C(=O)O)cc(-n3cc(-c4ccc(C(F)(F)F)cc4)nn3)c2)cc1 [Compound 13, 5-(4-(4-(Trifluoromethyl)phenyl)-1H-1,2,3-triazol-1-yl)-[1,1′-bi-phenyl]-3,4′-dicarboxylic Acid]
hP2Y14R [9]
  IC50: ~0.6 µM
[4]
  off-target interactions in the standard PDSP screen: did not show any off-target interactions

## CC(=O)N1CCC(c2ccc(-c3cc(C(=O)O)cc4cc(-c5ccc(C(F)(F)F)cc5)ccc34)cc2)CC1 [Compound 1b, reference compound]
[2]
  eosinophil counts in the BALF / efficacy in asthma model: no significant reduction
[5]
  effect on chronic pain in the CCI model: effective in reducing chronic pain

## O=C(O)c1cc(-c2ccc(-c3cc(CO)on3)cc2)cc(-n2cc(-c3ccc(C(F)(F)F)cc3)nn2)c1 [Compound 29, 4′-(5-(Hydroxymethyl)isoxazol-3-yl)-5-(4-(4-(trifluoromethyl)-phenyl)-1H-1,2,3-triazol-1-yl)-[1,1′-biphenyl]-3-carboxylic Acid]
hP2Y14R [3]
  hP2Y14R affinity in words: submicromolar affinity
[7]
  hydrophilicity gain compared to 1a: −1.06 cLogP units
DOR (δ-opioid receptor)
  Ki: 6.9 ± 1.9 µM
